This note sets out measurements from publication PMC12547752, “Silodosin as a Novel Inhibitor of Acetylcholinesterase, Butyrylcholinesterase, and BETA-Secretase 1: In Vitro and In Silico Studies” (ACS Omega, 2025).

As a reminder, the IC50 is the concentration needed to halve the response being measured. A high value points to a need for much substance.

This experiment concerns the target T1, butyrylcholinesterase (BuChE) (Equus caballus, UniProt P81908).
T1 construct: gene BCHE
Kind of experiment: Ellman colorimetric assay with equine serum BuChE, concentration-response. It is filed as biochemical. For orientation: Ellman's reagent forms a yellow product with free thiols.

T1 sequence (P81908 whole entry): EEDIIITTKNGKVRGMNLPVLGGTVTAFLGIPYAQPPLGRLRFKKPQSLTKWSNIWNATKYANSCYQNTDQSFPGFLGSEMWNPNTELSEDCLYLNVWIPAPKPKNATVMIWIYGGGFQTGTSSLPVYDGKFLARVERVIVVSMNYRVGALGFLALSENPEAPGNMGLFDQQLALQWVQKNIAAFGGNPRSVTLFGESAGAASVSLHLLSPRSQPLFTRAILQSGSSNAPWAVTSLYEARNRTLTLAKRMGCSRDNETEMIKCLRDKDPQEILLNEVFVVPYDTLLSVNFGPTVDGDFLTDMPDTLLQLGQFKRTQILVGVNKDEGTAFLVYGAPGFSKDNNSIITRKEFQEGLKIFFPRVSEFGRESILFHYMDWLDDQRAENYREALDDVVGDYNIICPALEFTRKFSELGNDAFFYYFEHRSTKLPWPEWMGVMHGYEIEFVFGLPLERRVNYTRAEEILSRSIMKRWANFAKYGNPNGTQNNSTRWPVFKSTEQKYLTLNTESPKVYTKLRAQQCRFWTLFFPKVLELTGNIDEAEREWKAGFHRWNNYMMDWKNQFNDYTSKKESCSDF

Take `C[C@H](Cc1cc2c(c(C(N)=O)c1)N(CCCO)CC2)NCCOc1ccccc1OCC(F)(F)F` [silodosin]: the IC50 came to 3.02 ± 0.05 µM.
